From PubChem BioAssay (NCI)
“And” between values parts separate entries of the source, which are not always exact repeats. Equal entries are not always repeated.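 Dose response: 5 concentrations. Exposure: 48 h. Format: 96-well plates. Endpoint: linear interpolation; highest concentration if not reached. At the GI50, growth is halved. Definition used: TGI = concentration required for complete inhibition of growth.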

Key:
Experiment in all cases: NCI-60 cell line screen, 48 h
[1] = system: SK-MEL-28 melanoma
[2] = system: UO-31 renal
[3] = system: NCI-H226 lung
[4] = system: SF-539 CNS
[5] = system: T-47D breast
[6] = system: HT29 colon
[7] = system: HOP-92 NSCLC
[8] = system: PC-3 prostate
[9] = system: SNB-75 CNS
[10] = system: COLO 205 colon
[11] = system: HOP-62 NSCLC
[12] = system: LOX IMVI melanoma
[13] = system: CAKI-1 renal
[14] = system: HCT-116 colon
[15] = system: KM12 colon
[16] = system: OVCAR-5 ovarian
[17] = system: NCI-H460 lung
[18] = system: SF-295 CNS
[19] = system: HCT-15 colon
[20] = system: SN12C renal
[21] = system: MOLT-4 leukemia
[22] = system: SW-620 colon
[23] = system: A549 NSCLC
[24] = system: SK-MEL-5 melanoma
[25] = system: UACC-257 melanoma
[26] = system: SK-OV-3 ovarian
[27] = system: NCI-H522 lung
[28] = system: ACHN renal
[29] = system: OVCAR-8 ovarian
[30] = system: CCRF-CEM leukemia
[31] = system: UACC-62 melanoma
[32] = system: SR leukemia
[33] = system: SNB-19 CNS
[34] = system: M14 melanoma
[35] = system: DU-145 prostate
[36] = system: RXF 393 renal
[37] = system: HCC-2998 colon
[38] = system: NCI/ADR-RES ovarian
[39] = system: MALME-3M melanoma
[40] = system: A498 renal
[41] = system: K-562 leukemia
[42] = system: SK-MEL-2 melanoma
[43] = system: MDA-MB-435
[44] = system: IGROV1 ovarian
[45] = system: OVCAR-4 ovarian
[46] = system: U251 CNS
[47] = system: TK-10 renal
[48] = system: MCF7 breast
[49] = system: NCI-H23 lung
[50] = system: MDA-MB-231 breast
[51] = system: RPMI-8226 leukemia
[52] = system: SF-268 CNS
[53] = system: OVCAR-3 ovarian
[54] = system: MDA-N
[55] = system: EKVX NSCLC
[56] = system: BT-549 breast
[57] = system: 786-0 renal
[58] = system: HL-60(TB) leukemia
[59] = system: HS 578T breast

C=C1CN(Cc2ccccc2)[C@@H]2CCCCC[C@H](C#N)[C@H]12
TGI [1]: > 100 µM | TGI [2]: > 100 µM | TGI [3]: > 100 µM | TGI [4]: > 100 µM | TGI [5]: > 100 µM | TGI [6]: > 100 µM | TGI [7]: > 93 µM | TGI [8]: > 100 µM | TGI [9]: > 100 µM | TGI [10]: > 100 µM | TGI [11]: > 100 µM | TGI [12]: > 100 µM | TGI [13]: > 100 µM | TGI [14]: > 100 µM | TGI [15]: > 100 µM | TGI [16]: > 100 µM | TGI [17]: > 100 µM | TGI [18]: > 30.7 µM | TGI [19]: > 100 µM | TGI [20]: > 100 µM | TGI [21]: > 100 µM | TGI [22]: > 100 µM | TGI [23]: > 100 µM | TGI [24]: > 100 µM | TGI [25]: > 100 µM | TGI [26]: > 100 µM | TGI [27]: > 100 µM | TGI [28]: > 100 µM | TGI [29]: > 100 µM | TGI [30]: > 100 µM | TGI [31]: > 100 µM | TGI [32]: > 100 µM | TGI [33]: > 100 µM | TGI [34]: > 100 µM | TGI [35]: > 100 µM | TGI [36]: > 100 µM | TGI [37]: > 100 µM | TGI [38]: > 100 µM | TGI [39]: > 100 µM | TGI [40]: > 100 µM | TGI [41]: > 100 µM | TGI [42]: > 100 µM | TGI [43]: > 100 µM | TGI [44]: > 100 µM | TGI [45]: > 100 µM | TGI [46]: > 100 µM | TGI [47]: > 100 µM | TGI [48]: > 100 µM | TGI [49]: > 100 µM | TGI [50]: > 100 µM | TGI [51]: > 80.1 µM | TGI [52]: > 100 µM | TGI [53]: > 100 µM | TGI [54]: > 100 µM | TGI [55]: > 100 µM | TGI [56]: > 100 µM | TGI [57]: > 100 µM

O=C(O)c1ccc2c(c1)nc(Nc1cccc(Cl)c1)c1ccncc12
GI50 [1]: 3.12 µM and 3.2 µM | TGI [1]: 21.9 µM and > 10 µM | GI50 [2]: 3.79 µM and 2.86 µM | TGI [2]: 14 µM and > 10 µM | GI50 [3]: 1.77 µM and 2.77 µM | TGI [3]: > 20.3 µM | GI50 [4]: 2.05 µM and 1.58 µM | TGI [4]: 8.45 µM and 6.12 µM | GI50 [5]: 2.83 µM and 1.33 µM | TGI [5]: > 39.1 µM and 5.71 µM | GI50 [6]: 5.48 µM and 6.26 µM | TGI [6]: 33.3 µM and > 10 µM | GI50 [7]: 0.325 µM and 0.445 µM | TGI [7]: 3.77 µM and 4.06 µM | GI50 [8]: 2.88 µM and 3.57 µM | TGI [8]: 22 µM and > 10 µM | GI50 [9]: 1.44 µM and 1.67 µM | TGI [9]: 6.33 µM and 7.53 µM | GI50 [10]: 4.21 µM and 3.67 µM | TGI [10]: 15.1 µM and > 10 µM | GI50 [11]: 3.3 µM and 3.38 µM | TGI [11]: 25.5 µM and > 10 µM | GI50 [12]: 2.04 µM and 2.7 µM | TGI [12]: 10.7 µM and > 10 µM | GI50 [13]: 1.31 µM and 1.96 µM | TGI [13]: 5.73 µM and 7.22 µM | GI50 [14]: 2.39 µM and 2.82 µM | TGI [14]: 8.69 µM and > 10 µM | GI50 [15]: 3.43 µM and 4.43 µM | TGI [15]: 18.1 µM and > 10 µM | GI50 [16]: 3.2 µM and 4.53 µM | TGI [16]: 38.7 µM and > 10 µM | GI50 [17]: 3.48 µM and 4.32 µM | TGI [17]: 25.1 µM and > 10 µM | GI50 [18]: 2.74 µM and 3.17 µM | TGI [18]: > 42.9 µM | GI50 [19]: 3.12 µM and 2.92 µM | TGI [19]: 21.7 µM and > 10 µM | GI50 [20]: 3.88 µM and 3.71 µM | TGI [20]: > 100 µM | GI50 [21]: 3.07 µM and 4.6 µM | TGI [21]: 7.4 µM and > 10 µM | GI50 [22]: 3.1 µM and 3.97 µM | TGI [22]: 26.5 µM and > 10 µM | GI50 [23]: 7.23 µM and 6.64 µM | TGI [23]: 27.4 µM and > 10 µM | GI50 [24]: 1.86 µM and 2.08 µM | TGI [24]: 4.76 µM and 5.38 µM | GI50 [58]: 2.88 µM and 4.98 µM | TGI [58]: 7.67 µM and > 10 µM | GI50 [25]: 3.88 µM and 2.68 µM | TGI [25]: 20.3 µM and > 10 µM | GI50 [26]: 2.98 µM and 2.42 µM | TGI [26]: 11.6 µM and 7.52 µM | GI50 [27]: 1.98 µM and 1.39 µM | TGI [27]: 6.42 µM and 4.51 µM | GI50 [28]: 3.04 µM and 3.51 µM | TGI [28]: > 100 µM | GI50 [29]: 4.1 µM and 3.3 µM | TGI [29]: > 75.4 µM | GI50 [30]: 2.25 µM and 1.85 µM | TGI [30]: 8.55 µM and 7.01 µM | GI50 [31]: 1.82 µM | TGI [31]: 6.16 µM | GI50 [32]: 2.04 µM and 2.63 µM | TGI [32]: 6.3 µM and 9.2 µM | GI50 [33]: 3.04 µM and 3.46 µM | TGI [33]: > 100 µM | GI50 [34]: 1.52 µM and 2.2 µM | TGI [34]: 5.39 µM and 9.68 µM | GI50 [35]: 4.92 µM and 6.02 µM | TGI [35]: 47.3 µM and > 10 µM | GI50 [36]: 3.23 µM and 4.17 µM | TGI [36]: 13 µM and > 10 µM | GI50 [37]: 2.53 µM and 4.02 µM | TGI [37]: 15.1 µM and > 10 µM | GI50 [38]: 3.17 µM and 3.73 µM | TGI [38]: > 80.1 µM | GI50 [39]: 1.91 µM and 2.68 µM | TGI [39]: 7.71 µM and > 10 µM | GI50 [59]: 0.435 µM and 1.17 µM | TGI [59]: 3.88 µM and 6.21 µM | GI50 [40]: 0.231 µM and 1.99 µM | TGI [40]: 2.46 µM and 6.66 µM | GI50 [41]: 3.06 µM and 4.09 µM | TGI [41]: 15.7 µM and > 10 µM | GI50 [42]: 2.4 µM and 1.86 µM | TGI [42]: 7.11 µM and 5.59 µM | GI50 [43]: 2.67 µM and 3.01 µM | TGI [43]: > 31.6 µM | GI50 [44]: 3.56 µM and 2.68 µM | GI50 [45]: 2.09 µM and 4.08 µM | TGI [45]: 21.6 µM and > 10 µM | GI50 [46]: 1.82 µM and 1.38 µM | GI50 [47]: 3.67 µM and 2.13 µM | TGI [47]: 25.2 µM and > 10 µM | GI50 [48]: 2.22 µM and 2.57 µM | TGI [48]: > 100 µM | GI50 [49]: 2.37 µM and 2.98 µM | TGI [49]: 8.29 µM and > 10 µM | GI50 [50]: 4.18 µM and 3.57 µM | TGI [50]: 34.2 µM and > 10 µM | GI50 [51]: 2.68 µM and 2.5 µM | TGI [51]: 8.86 µM and 9.44 µM | GI50 [52]: 3.52 µM and 3.85 µM | TGI [52]: > 77.4 µM | GI50 [53]: 1.2 µM and 1.68 µM | TGI [53]: 4.15 µM and > 10 µM | GI50 [55]: 3.46 µM and 4.04 µM | TGI [55]: 23.9 µM and > 10 µM | GI50 [56]: 2.48 µM and 2.29 µM | TGI [56]: 10.9 µM and 8.33 µM | GI50 [57]: 3.7 µM and 4.2 µM | TGI [57]: 18.6 µM and > 10 µM

Cc1ccc(S(=O)(=O)Oc2nc3ccccc3nc2N(S(=O)(=O)c2ccc(C)cc2)S(=O)(=O)c2ccc(C)cc2)cc1
TGI [1]: > 100 µM | TGI [2]: > 100 µM | TGI [3]: > 100 µM | TGI [4]: > 100 µM | TGI [6]: > 100 µM | TGI [8]: > 100 µM | TGI [9]: > 100 µM | TGI [10]: > 100 µM | TGI [12]: > 100 µM | TGI [13]: > 100 µM | TGI [14]: > 100 µM | TGI [15]: > 100 µM | TGI [16]: > 100 µM | TGI [17]: > 100 µM | TGI [18]: > 100 µM | TGI [19]: > 100 µM | TGI [20]: > 100 µM | TGI [21]: > 100 µM | TGI [22]: > 100 µM | TGI [23]: > 100 µM | TGI [24]: > 100 µM | TGI [58]: > 100 µM | TGI [25]: > 100 µM | TGI [26]: > 100 µM | TGI [27]: > 100 µM | TGI [28]: > 100 µM | TGI [29]: > 100 µM | TGI [30]: > 100 µM | TGI [31]: > 100 µM | TGI [33]: > 100 µM | TGI [34]: > 100 µM | TGI [35]: > 100 µM | TGI [36]: > 100 µM | TGI [37]: > 100 µM | TGI [38]: > 100 µM | TGI [39]: > 100 µM | TGI [59]: > 100 µM | TGI [40]: > 100 µM | TGI [42]: > 100 µM | TGI [43]: > 100 µM | TGI [44]: > 100 µM | TGI [46]: > 100 µM | TGI [47]: > 100 µM | TGI [48]: > 100 µM | TGI [49]: > 100 µM | TGI [50]: > 100 µM | TGI [51]: > 100 µM | TGI [52]: > 100 µM | TGI [53]: > 100 µM | TGI [54]: > 100 µM | TGI [55]: > 100 µM | TGI [56]: > 100 µM | TGI [57]: > 100 µM
